Measured values taken from PubChem BioAssay AID1053182 (The Scripps Research Institute Molecular Screening Center, 2014).
Active and inactive are the calls of the source. How the calls were made is not given here.

The molecules below were run against Trace amine-associated receptor 1 (Homo sapiens) (UniProt Q96RJ0) (assay: TAAR1 agonist activity of antagonist analogs, SAR follow-up, counter-screen for TAAR1 antagonist project, cell-based, fluorescence, human, MedChem round 2 (AID 1053182)). Conditions: TAAR1-expressing cells, cAMP fluorescence agonist mode.
Chain of Trace amine-associated receptor 1 (Homo sapiens) (Q96RJ0 whole entry, looked up, the tested form may be a part): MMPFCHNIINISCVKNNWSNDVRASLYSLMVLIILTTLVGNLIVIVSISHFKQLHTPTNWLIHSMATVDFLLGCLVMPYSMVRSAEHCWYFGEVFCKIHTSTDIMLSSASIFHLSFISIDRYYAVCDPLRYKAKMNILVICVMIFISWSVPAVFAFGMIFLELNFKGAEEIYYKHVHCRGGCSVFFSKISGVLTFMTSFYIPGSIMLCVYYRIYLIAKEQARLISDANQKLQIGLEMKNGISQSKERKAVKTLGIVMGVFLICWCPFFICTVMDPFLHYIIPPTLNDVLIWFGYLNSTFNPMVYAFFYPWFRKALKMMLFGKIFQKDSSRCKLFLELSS
For N#Cc1c(C(F)(F)F)cc(-c2ccc(Cl)cc2)nc1SCC(=O)N1CCCCCC1, the EC50 was > 29900 nM (inactive). Molecule CC(CN1CCCC1Cc1ccccc1)C(=O)c1ccc2c(c1)OCCO2 (configuration not stated) has an EC50 of 245 nM. With N#Cc1c(C(F)(F)F)cc(-c2ccc(Cl)cc2)nc1SCC(=O)N1CCCC1 the EC50 was > 29900 nM (inactive). Molecule Cc1ccc(C(=O)CCN2CCC(c3ccccc3)C2)cc1 (configuration not stated) has an EC50 of 282 nM. COc1cc(C(=O)CCN2CCC(c3ccccc3)C2)cc(OC)c1OC (configuration not stated) was tested, and the EC50 was 122 nM. With N#Cc1c(C(F)(F)F)cc(-c2ccc(Cl)cc2)nc1SCC(=O)Nc1ncccn1 the EC50 was > 29900 nM (inactive). Work on O=C(CCN1CCC(c2ccccc2)C1)c1ccccc1 (configuration not stated) yielded an EC50 of 100 nM.
